The first assay addresses CDK2/cyclinE (Homo sapiens (Human), UniProt P24941). The assay is described as follows: CDK2/cyclinE kinase enzymatic assay (Caliper LabChip). The format is biochemical. Particulars: Table 2, class symbols; read-out: CDK2/CycE IC50. On the procedure:
(§1) Kinase enzymatic reactions were performed in 384-well microplates using a 12-channel Caliper LabChip instrument as a detection device. […] As substrate and product are separated, two peaks of fluorescence are observed. Change in the relative fluorescence intensity of the substrate and product peaks is the parameter measured, reflecting enzyme activity. In the presence of an inhibitor, the ratio between product and substrate is altered. The signal of the product decreases, while the signal of the substrate increases.
(§2) Potential inhibitor compounds (as HCl salts) were tested using 12-point dose response curves in […] at the Km for ATP. The IC50 of each compound was determined using GraphPad Prism.
Take `CN1CCN(c2ccc(Nc3ncc4cc5n(c4n3)CCNC5=O)nc2)CC1` [Compound 1]: the IC50 was above 100 µM.

For the molecule `CN1CCn2c(cc3cnc(Nc4ccc(N5CCNCC5)cn4)nc32)C1=O` [Compound 5], the IC50 was above 100 µM.

In the case of `CC(C)C1CNC(=O)c2cc3cnc(Nc4ccc(N5CCN(C(=O)OC(C)(C)C)CC5)cn4)nc3n21` (stereo not shown) [Compound 6], the IC50 is above 100 µM.

As to `CC(C)C1CNC(=O)c2cc3cnc(Nc4ccc(N5CCN(C)CC5)cn4)nc3n21` (stereo not shown) [Compound 7], the IC50 is above 100 µM.

For the molecule `CC(C)[C@H]1CN(C)C(=O)c2cc3cnc(Nc4ccc(N5CCNCC5)cn4)nc3n21` [Compound 11], the IC50 was above 100 µM.

Take `CC(C)C[C@H]1CN(C)C(=O)c2cc3cnc(Nc4ccc(N5CCN(C)CC5)cn4)nc3n21` [Compound 14]: the IC50 is above 100 µM.

Regarding `CC(C)C[C@H]1CN(C)C(=O)c2cc3cnc(Nc4ccc(N5CCNCC5)cn4)nc3n21` [Compound 15], the IC50 is above 100 µM.

As to `CCC(C)[C@H]1CN(C)C(=O)c2cc3cnc(Nc4ccc(N5CCN(C)CC5)cn4)nc3n21` (stereo partly shown) [Compound 18], the IC50 was above 100 µM.

Take `CCC(C)[C@H]1CN(C)C(=O)c2cc3cnc(Nc4ccc(N5CCNCC5)cn4)nc3n21` (stereo partly shown) [Compound 19]: the IC50 is above 100 µM.

In the case of `CN1CC2(CCCC2)n2c(cc3cnc(Nc4ccc(N5CCNCC5)cn4)nc32)C1=O` [Compound 31], the IC50 was above 100 µM.

Consider `CC(C)CC1CN(C)C(=O)c2cc3cnc(Nc4ccc(N5CCNCC5)cn4)nc3n21` (stereo not shown) [Compound 47], for which the IC50 was above 100 µM.

As to `CN1CCN(c2ccc(Nc3ncc4cc5n(c4n3)[C@H]3CCC[C@@H]3NC5=O)nc2)CC1` [Compound 48], the IC50 was above 100 µM.

With `O=C1N[C@H]2CCC[C@@H]2n2c1cc1cnc(Nc3ccc(N4CCNCC4)cn3)nc12` [Compound 49], the IC50 fell in the range of 1 to 100 µM.

For a further assay, the target named is CDK4/CyclinD (Homo sapiens (Human), UniProt P11802). As to the kind of experiment: CDK4/CyclinD kinase enzymatic assay (Caliper LabChip). Type of assay: biochemical. Particulars: compounds as HCl salts, 12-point dose response, at the Km for ATP, three hours. Here is the method: as §1, §2
Sequence of CDK4/CyclinD (P11802 whole entry, species assumed): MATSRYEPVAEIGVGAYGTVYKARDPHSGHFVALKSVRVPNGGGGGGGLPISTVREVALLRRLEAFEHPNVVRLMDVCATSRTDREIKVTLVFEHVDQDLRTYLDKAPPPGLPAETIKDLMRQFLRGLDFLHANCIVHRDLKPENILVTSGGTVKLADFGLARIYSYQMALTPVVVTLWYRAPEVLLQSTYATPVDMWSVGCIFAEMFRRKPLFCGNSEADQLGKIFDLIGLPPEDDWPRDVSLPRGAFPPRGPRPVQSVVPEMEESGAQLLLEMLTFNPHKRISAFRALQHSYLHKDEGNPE
Sequence of CDK4/CyclinD (P24385 whole entry partner, species assumed): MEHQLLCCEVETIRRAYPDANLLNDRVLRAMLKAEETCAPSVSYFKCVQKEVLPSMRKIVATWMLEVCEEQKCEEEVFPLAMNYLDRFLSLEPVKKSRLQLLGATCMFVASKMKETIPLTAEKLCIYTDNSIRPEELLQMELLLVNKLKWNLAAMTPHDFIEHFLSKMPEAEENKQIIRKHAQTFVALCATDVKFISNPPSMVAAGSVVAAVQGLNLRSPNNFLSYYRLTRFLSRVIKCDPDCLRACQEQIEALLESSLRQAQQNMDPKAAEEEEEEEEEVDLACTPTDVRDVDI
Regarding `CN1CCN(c2ccc(Nc3ncc4cc5n(c4n3)CCNC5=O)nc2)CC1` [Compound 1], the IC50 stood at 0.453 µM.

Staying with this assay, now noted: from the IC50 values.
Take `CN1CCN(c2ccc(Nc3ncc4cc5n(c4n3)CCNC5=O)nc2)CC1` [Compound 1]: the “selectivity for Cdk4/CycD1 over Cdk2/CycE” value is on record as 200 fold.

For the molecule `O=C1NCCn2c1cc1cnc(Nc3ccc(N4CCNCC4)cn3)nc12` [Compound 3], the “selectivity for Cdk4/CycD1 over Cdk2/CycE” value was determined as 100 fold.

The values above are taken from patent US9957276B2, “CDK inhibitors” (G1 THERAPEUTICS, INC., priority 2010, dated 2018).
